In patent US20230346831A1, “METHODS FOR TREATING […] USING LOW DOSE CARBON MONOXIDE” (priority 2020, published 2023):

System: oxygen consumption / mitochondrial respiration
Assay: Seahorse XF Cell Mito Stress Test
Assay type: cell-based, human
Text: In particular, MDA-MB-231/TGL and MCF7/TGL/PQ cells treated with carbon monoxide met their energetic needs at the same rate as untreated control cells. […] In particular, MDA-MB-231/TGL and MCF7/TGL/PQ cells treated with carbon monoxide stimulated their mitochondrial respiratory chains at the same rate as untreated control cells.
The heme group confers functionality to multiple proteins, which can include oxygen carrying, oxygen reduction, electron transfer, and other processes. To determine whether the decrease of heme levels impacts levels of oxygen-utilizing hemoproteins and therefore reduces oxygen consumption, oxygen consumption rates (OCR) was measured. However, lower OCR after 16 hours in 250 ppm CO was not detected using Seahorse XF Cell Mito Stress Tests in MCF7 and MDA-MB-231 (data not shown).

[1] = MDA-MB-231 and MCF7 cells, low dose carbon monoxide

Q: What does the source list for `[C-]#[O+]` [CO, Carbon monoxide]?
A: lower oxygen consumption rates (OCR) (MCF7 and MDA-MB-231, after 16 hours in 250 ppm CO, data not shown): not detected; mitochondrial spare respiratory capacity (MDA-MB-231 and MCF7 cells, carbon monoxide treatment): improved; mitochondrial ATP production [1]: did not affect; stress-induced mitochondrial maximum respiration [1]: did not affect
